Reference: ChEMBL document CHEMBL1687871, “Phragmalin- and mexicanolide-type limonoids from the leaves of Trichilia connaroides” (J Nat Prod, 2011)

System: HL-60
Assay: Cytotoxicity against human HL60 cells
Format: functional, cell-based

SMILES	IC50 [µM]
C/C=C(\C)C(=O)O[C@H]1[C@@]2(C)C[C@@]3(OC(C)=O)[C@](C)([C@H]4CC[C@]5(C)C(=C4[C@H](OC(C)=O)[C@@]13OC(C)=O)[C@@H](OC(C)=O)C(=O)O[C@H]5c1ccoc1)[C@H]2CC(=O)OC [15-ACETYLTRICHAGMALIN E]	21
C/C=C(\C)C(=O)O[C@H]1[C@@]2(C)C[C@@]3(O)[C@](C)([C@H]4CC[C@]5(C)C(=C4[C@H](OC(C)=O)[C@@]13O)[C@@H](OC(C)=O)C(=O)O[C@H]5c1ccoc1)[C@H]2CC(=O)OC [TRICHAGMALIN D]	17.1
